Laboratory results reported in ChEMBL document CHEMBL4340512, “Discovery of novel triazolo[4,3-b]pyridazin-3-yl-quinoline derivatives as PIM inhibitors” (Eur J Med Chem, 2019).

Experiments:
MIA PaCa-2 = assay: Antiproliferative activity against human MIAPaCa2 assessed as combination index at 20 uM incubated for 72 hrs in presence of GI50 dose of Lapatinib by CellTiter-Glo luminescence assay; format: functional
PC-3 [1] = assay: Antiproliferative activity against human PC3 assessed as combination index at 20 uM incubated for 72 hrs in presence of GI50 dose of GDC-0941 by CellTiter-Glo luminescence assay; format: functional
PC-3 [2] = assay: Antiproliferative activity against human PC3 cells incubated for 72 hrs by CellTiter-Glo luminescence assay; format: functional; details: PC-3, 72 h
NCI-H1650 = assay: Antiproliferative activity against human NCI-H1650 cells incubated for 72 hrs by CellTiter-Glo luminescence assay; format: functional; details: NCI-H1650, 72 h
SW480 = assay: Antiproliferative activity against human SW480 cells incubated for 72 hrs by CellTiter-Glo luminescence assay; format: functional; details: SW480, 72 h
[3] = biological target: Serine/threonine-protein kinase pim-3 (Homo sapiens, UniProt Q86V86); assay: Inhibition of N-terminal 6-His tagged human recombinant PIM3 using PIM tide (ARKRRRHPSGPPTA) as substrate incubated for 1 hr by fluorescence based assay

Compound: COCCN1CCOc2c1cnn1c(-c3ccc4cccc(NCC5CCNCC5)c4n3)nnc21
- CI (MIA PaCa-2): 0.069
- CI (PC-3 [1]): 0.094
- GI50 (PC-3 [2]): 17.1 µM
- GI50 (NCI-H1650): 22.5 µM
- GI50 (SW480): 8.17 µM
- IC50 [3]: 0.07 µM
